Assay results as given in PubChem BioAssay AID192 (DTP/NCI, 2004).
“And” between values parts separate entries of the source, which are not always exact repeats. Equal entries are not always repeated. Toxic doses and inconclusive results are not listed. Rule for the calls: active = survival T/C of 150% or more; inactive = T/C below 125% in these data. Square brackets hold non-standard residues; d marks the D form. Peptide text beside a SMILES is read from it. Abu = CC[CH](N)C(=O)O

Tested on: BDF1 mice, B16 melanoma ip, median survival T/C
Test: NCI In Vivo Anticancer Drug Screen. Data for tumor model B16 Melanoma (intraperitoneal) in B6D2F1 (BDF1) mice
Settings: endpoint: median survival time, higher = longer survival
Method in brief: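 Mice with transplantable tumors; drug vs vehicle groups; endpoint survival or tumor size; value = T/C.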

[1] = dose: 75.0 mg/kg/injection, schedule: Q01DX009 (ip), vehicle: Klucel (hydroxypropylcellulose) (HPC)
[2] = dose: 150.0 mg/kg/injection, schedule: Q01DX009 (ip), vehicle: Klucel (hydroxypropylcellulose) (HPC)
[3] = dose: 300.0 mg/kg/injection, schedule: Q01DX009 (ip), vehicle: Klucel (hydroxypropylcellulose) (HPC)
[4] = dose: 25.0 mg/kg/injection, schedule: Q01DX009 (ip), vehicle: Klucel (hydroxypropylcellulose) (HPC)
[5] = dose: 50.0 mg/kg/injection, schedule: Q01DX009 (ip), vehicle: Klucel (hydroxypropylcellulose) (HPC)
[6] = dose: 50.0 mg/kg/injection, schedule: Q01DX009 (ip), vehicle: saline
[7] = dose: 100.0 mg/kg/injection, schedule: Q01DX009 (ip), vehicle: saline
[8] = dose: 100.0 mg/kg/injection, schedule: Q01DX009 (ip), vehicle: Klucel (hydroxypropylcellulose) (HPC)
[9] = dose: 200.0 mg/kg/injection, schedule: Q01DX009 (ip), vehicle: Klucel (hydroxypropylcellulose) (HPC)
[10] = dose: 12.5 mg/kg/injection, schedule: Q01DX009 (ip), vehicle: Klucel (hydroxypropylcellulose) (HPC)
[11] = dose: 50.0 mg/kg/injection, schedule: Q01DX009 (ip), vehicle: saline with Tween-80

Measured: T/C

CC(C)(C)OC(=O)C(CSSCC(NC(=O)OCc1ccccc1)C(=O)OC(C)(C)C)NC(=O)OCc1ccccc1 (configuration not stated)
inactive: [1] 94 % of control | [2] 100 % of control | [3] 88 % of control

[Cl][Ge]([Cl])([c]1ccccc1)[c]1ccccc1
inactive: [4] 93 % of control | [5] 100 % of control

Cc1ccc(C)n1-c1ccccc1
inactive: dose: 100.0 mg/kg/injection, schedule: Q01DX009 (ip), vehicle: saline + alcohol 101 % of control | dose: 200.0 mg/kg/injection, schedule: Q01DX009 (ip), vehicle: saline + alcohol 99 % of control

CCC(N)C(=O)NC(C(N)=O)C(C)C (configuration not stated) (H-[Abu]-Val-NH2; configuration not given here)
inactive: [6] 90 % of control | [7] 100 % of control | dose: 200.0 mg/kg/injection, schedule: Q01DX009 (ip), vehicle: saline 110 % of control | dose: 400.0 mg/kg/injection, schedule: Q01DX009 (ip), vehicle: saline 100 % of control

O=C1c2ccccc2C(=O)C(Cl)C1Cl (configuration not stated)
inactive: dose: 0.19 mg/kg/injection, schedule: Q01DX009 (ip), vehicle: saline with Tween-80 94 % of control | dose: 0.39 mg/kg/injection, schedule: Q01DX009 (ip), vehicle: saline with Tween-80 94 % of control | dose: 5.0 mg/kg/injection, schedule: Q01DX009 (ip), vehicle: saline 86 % of control

Cc1cc(C)c(OCC2CO2)c(C)c1 (configuration not stated)
inactive: [8] 103 % of control | [9] 96 % of control | dose: 400.0 mg/kg/injection, schedule: Q01DX009 (ip), vehicle: Klucel (hydroxypropylcellulose) (HPC) 90 % of control

Oc1ccc2ccccc2c1C1=NNc2n[nH]c(=S)n2N1
inactive: [10] 100 % of control | [4] 103 % of control | [5] 112 % of control

O=C1c2ccccc2C(=O)N1CCC[P+](c1ccccc1)(c1ccccc1)c1ccccc1
inactive: dose: 1.56 mg/kg/injection, schedule: Q01DX009 (ip), vehicle: Klucel (hydroxypropylcellulose) (HPC) 100 % of control | dose: 3.12 mg/kg/injection, schedule: Q01DX009 (ip), vehicle: Klucel (hydroxypropylcellulose) (HPC) 102 % of control | dose: 6.25 mg/kg/injection, schedule: Q01DX009 (ip), vehicle: Klucel (hydroxypropylcellulose) (HPC) 96 % of control | [10] 100 % of control

S=P(N1CC1)(N1CC1)N1CC1
inactive: dose: 0.5 mg/kg/injection, schedule: Q01DX009 (ip), vehicle: saline 104 % of control | dose: 1.0 mg/kg/injection, schedule: Q02DX009 (ip), vehicle: saline 106 % of control and 120 % of control | dose: 1.5 mg/kg/injection, schedule: Q01DX009 (ip), vehicle: saline 110 % of control and 120 % of control | dose: 1.5 mg/kg/injection, schedule: Q02DX009 (ip), vehicle: saline 112 % of control | dose: 2.0 mg/kg/injection, schedule: Q02DX009 (ip), vehicle: saline 94 % of control and 111 % of control | dose: 3.0 mg/kg/injection, schedule: Q01DX009 (ip), vehicle: saline 104 % of control and 111 % of control | dose: 3.0 mg/kg/injection, schedule: Q02DX009 (ip), vehicle: saline 120 % of control | dose: 4.0 mg/kg/injection, schedule: Q02DX009 (ip), vehicle: saline 119 % of control and 120 % of control | dose: 6.0 mg/kg/injection, schedule: Q01DX009 (ip), vehicle: saline 86 % of control | dose: 6.0 mg/kg/injection, schedule: Q02DX009 (ip), vehicle: saline 116 % of control and 117 % of control | dose: 8.0 mg/kg/injection, schedule: Q02DX009 (ip), vehicle: saline 88 % of control and 122 % of control | dose: 12.0 mg/kg/injection, schedule: Q02DX009 (ip), vehicle: saline 86 % of control

CN1C(=O)CC2(CCN(CCCC(=O)c3ccc(F)cc3)CC2)C1=O
inactive: dose: 6.25 mg/kg/injection, schedule: Q01DX009 (ip), vehicle: saline with Tween-80 99 % of control | dose: 12.5 mg/kg/injection, schedule: Q01DX009 (ip), vehicle: saline with Tween-80 109 % of control | dose: 25.0 mg/kg/injection, schedule: Q01DX009 (ip), vehicle: saline with Tween-80 104 % of control | [11] 95 % of control

CCOC(=O)C(NC(=O)NC)C(=O)OCC
inactive: [1] 102 % of control | [2] 103 % of control | [3] 100 % of control

C[C@H](N)C(=O)N[C@@H]1[C@H]2C(=C(O)C[C@@H](O)[C@@H]2O)C(=O)O[C@@H]1C
inactive: dose: 150.0 mg/kg/injection, schedule: Q01DX009 (ip), vehicle: saline 100 % of control | dose: 300.0 mg/kg/injection, schedule: Q01DX009 (ip), vehicle: saline 102 % of control | dose: 600.0 mg/kg/injection, schedule: Q01DX009 (ip), vehicle: saline 106 % of control | dose: 1200.0 mg/kg/injection, schedule: Q01DX009 (ip), vehicle: saline 116 % of control

CCN(CC)CCOC(=O)N(c1ccccc1)c1ccccc1
inactive: dose: 6.25 mg/kg/injection, schedule: Q01DX009 (ip), vehicle: saline 104 % of control | dose: 12.5 mg/kg/injection, schedule: Q01DX009 (ip), vehicle: saline 100 % of control | dose: 25.0 mg/kg/injection, schedule: Q01DX009 (ip), vehicle: saline 104 % of control | [6] 95 % of control | [7] 86 % of control

COc1cc2cnccc2cc1O
inactive: dose: 12.5 mg/kg/injection, schedule: Q01DX009 (ip), vehicle: water 104 % of control | dose: 25.0 mg/kg/injection, schedule: Q01DX009 (ip), vehicle: water 102 % of control | dose: 50.0 mg/kg/injection, schedule: Q01DX009 (ip), vehicle: water 103 % of control | dose: 100.0 mg/kg/injection, schedule: Q01DX009 (ip), vehicle: water 109 % of control

CC(=O)c1ccccc1I
inactive: [4] 102 % of control and 113 % of control | [5] 105 % of control and 106 % of control | [8] 105 % of control and 106 % of control | [9] 102 % of control and 106 % of control

CC(C)(C)OC(=O)C(CC(=O)O)NC(=O)OCc1ccccc1 (configuration not stated) (tested in a mixture with another compound)
inactive: dose: 15.0 mg/kg/injection, schedule: Q01DX009 (ip), vehicle: saline 107 % of control | dose: 30.0 mg/kg/injection, schedule: Q01DX009 (ip), vehicle: saline 102 % of control | dose: 60.0 mg/kg/injection, schedule: Q01DX009 (ip), vehicle: saline 108 % of control

[Cl][Pt+2][Cl].[NH-]c1ccc(C(=O)c2ccccc2)cc1[NH-]
inactive: dose: 20.0 mg/kg/injection, schedule: Q01DX009 (ip), vehicle: saline with Tween-80 108 % of control | dose: 40.0 mg/kg/injection, schedule: Q01DX009 (ip), vehicle: saline with Tween-80 113 % of control | dose: 80.0 mg/kg/injection, schedule: Q01DX009 (ip), vehicle: saline with Tween-80 118 % of control | dose: 160.0 mg/kg/injection, schedule: Q01DX009 (ip), vehicle: saline with Tween-80 114 % of control | dose: 320.0 mg/kg/injection, schedule: Q01DX009 (ip), vehicle: saline with Tween-80 113 % of control

CN(C)N=Nc1cn(C)c(=O)n(C)c1=O
inactive: dose: 12.5 mg/kg/injection, schedule: Q04DX003 (ip), vehicle: Klucel (hydroxypropylcellulose) (HPC) 100 % of control | dose: 25.0 mg/kg/injection, schedule: Q04DX003 (ip), vehicle: Klucel (hydroxypropylcellulose) (HPC) 118 % of control | dose: 50.0 mg/kg/injection, schedule: Q04DX003 (ip), vehicle: Klucel (hydroxypropylcellulose) (HPC) 103 % of control

CCCCN(CCCC)/N=C\C1=C2NC(=O)/C(C)=C\C=C/C(OC)C(OC(N)=O)/C(C)=C/C(C)C(O)C(OC)CC(C)CC(=C(OC)C1=O)C2=O (configuration not stated)
inactive: dose: 12.5 mg/kg/injection, schedule: Q01DX005 (ip), vehicle: other 103 % of control | dose: 25.0 mg/kg/injection, schedule: Q01DX005 (ip), vehicle: other 94 % of control | dose: 50.0 mg/kg/injection, schedule: Q01DX005 (ip), vehicle: other 90 % of control | dose: 100.0 mg/kg/injection, schedule: Q01DX005 (ip), vehicle: other 95 % of control | dose: 200.0 mg/kg/injection, schedule: Q01DX005 (ip), vehicle: other 93 % of control

ClCCOCOCCCl
inactive: dose: 20.0 mg/kg/injection, schedule: Q04DX003 (ip), vehicle: Klucel (hydroxypropylcellulose) (HPC) 101 % of control | dose: 40.0 mg/kg/injection, schedule: Q04DX003 (ip), vehicle: Klucel (hydroxypropylcellulose) (HPC) 89 % of control | dose: 80.0 mg/kg/injection, schedule: Q04DX003 (ip), vehicle: Klucel (hydroxypropylcellulose) (HPC) 102 % of control

CN1NCc2cncnc21
inactive: [11] 107 % of control | dose: 100.0 mg/kg/injection, schedule: Q01DX009 (ip), vehicle: saline with Tween-80 101 % of control | dose: 200.0 mg/kg/injection, schedule: Q01DX009 (ip), vehicle: saline with Tween-80 97 % of control
